Laboratory results: patent US20260308157A1, “Pyrrolopyrazine Compounds, Preparation Thereof and Therapeutic Uses Thereof” (Sanofi, priority 2023, published 2026)

Assays:
Cellular ERK5 Activity = biological target: T1, Cellular ERK5 Activity (Homo sapiens, UniProt Q13164); test: Inhibition of Cellular ERK5 Activity (cell-based assay, MEF2 luciferase reporter in SN12C cells); conditions: renal cancer cell line SN12C, doxycycline-induced MEK5DD, 0.3-10000 nM, mean where repeated
T1 construct: MEF2-response-element luciferase reporter (pGreenFire1)
Description: (§1) Two assays were performed to assess the ERK5 inhibitory activity of compounds of the Examples, a cell-based assay and a cell-free biochemical assay. Where repeat measurements were taken, the value reported is a mean average.
Inhibition of Cellular ERK5 Activity
The renal cancer cell line SN12C was transduced by a lentivirus pGreenFire1 MEF2 EF1 Neo (ref TR030VA-N) from SBI using standard infection protocol. pGreenFire1 MEF2 EF1 Neo allows the expression of luciferase gene under the control of minimal promoter with MEF2 transcriptional response elements. Cells harboring the reporter construct were selected by geneticin treatment. The selected cells were then transposed by a piggyback based plasmid pCM4007 allowing the expression of constitutively activated MEK5DD under control of TREG3 promoter, a doxycycline regulated promoter. Transposed cells were selected by puromycin treatment. Upon doxycycline treatment (1 μg/ml) MEK5DD was expressed. MEK5DD activates ERK5 that phosphorylates MEF2C protein. Activated MEF2C protein can bind to its transcriptional response elements. Then the luciferase is expressed. In a 96-well plate (96F nuncleon ref137101 thermofisher), 50,000 cells were inoculated in 142.5 μl of RPMI medium containing 10% fetal calf serum, 1% glutamine, and 1 μg/ml doxycycline. After 24 hours, compounds were added in 7.5 μl culture medium (with 2% DMSO to give a final concentration of 0.1%) in order to obtain the desired concentration (0.3-10000 nM). The luciferase activity was measured using the Kit Bright Glo Luminescent Cell Assay Cat E2610 (Promega) according to the manufacturer's protocol. Luminescence was determined using 0.2 second reading/well using a Tecan SPARK. IC50 values were calculated using XLFIT5 for Microsoft Excel using method 205. The IC50 values represent the concentration of compound which inhibits the measurable luminescence signal by 50% as compared to DMSO-treated control cells.

[1] = biological target: T2, activated catalytic domain of protein ERK5 (Homo sapiens, UniProt Q13164); test: Cell-Free Assay of ERK5 Inhibition (Time-Resolved Forster Resonance Energy Transfer); type: biochemical; conditions: ERK5 4 nM, 1 mM ATP, 1 μM biotinylated 4EBP1 peptide, 30 min at 37° C.; TR-FRET; mean where repeated
T2 construct: purchased CarnaBiosciences #04-146
Description: as §1
Cell-Free Assay of ERK5 Inhibition
An assay was performed to measure the capacity of each compound to inhibit ERK5 enzymatic activity. Compound potency was evaluated by Time-Resolved Forster Resonance Energy Transfer (FRET system). The activated catalytic domain of protein ERK5 (CarnaBiosciences #04-146) was mixed at 4 nM with varying concentrations of compound and incubated for 30 minutes at room temperature. A mixture of 1 mM ATP and 1 μM biotinylated synthetic peptide was added (Biosyntan GmbH). This synthetic peptide represents amino acids 30-52 of Eukaryotic translation initiation factor 4E-binding protein 1 (see, e.g., the sequence under accession No. NP_004086.1) biotinylated at the N-terminus. After 30 minutes at 37° C., the peptide phosphorylation by ERK5 was measured by addition of FRET reagents consisting of 12.5 µg/ml Streptavidin-XL665, 1 nM Anti-P-4EBP1 antibody and 300 ng/ml Anti-rabbit-K antibody. Following 90 minutes at room temperature fluorescent signals were read on the Pherastar FSX multimod detector from BMG Labtech (Exc° 340 nm, Em1 620 nm, Em2 665 nm). The IC50 values represent the concentration of compound which inhibits the measurable fluorescence signal by […] as compared to the DMSO only control.

T1 sequence (Q13164 whole entry): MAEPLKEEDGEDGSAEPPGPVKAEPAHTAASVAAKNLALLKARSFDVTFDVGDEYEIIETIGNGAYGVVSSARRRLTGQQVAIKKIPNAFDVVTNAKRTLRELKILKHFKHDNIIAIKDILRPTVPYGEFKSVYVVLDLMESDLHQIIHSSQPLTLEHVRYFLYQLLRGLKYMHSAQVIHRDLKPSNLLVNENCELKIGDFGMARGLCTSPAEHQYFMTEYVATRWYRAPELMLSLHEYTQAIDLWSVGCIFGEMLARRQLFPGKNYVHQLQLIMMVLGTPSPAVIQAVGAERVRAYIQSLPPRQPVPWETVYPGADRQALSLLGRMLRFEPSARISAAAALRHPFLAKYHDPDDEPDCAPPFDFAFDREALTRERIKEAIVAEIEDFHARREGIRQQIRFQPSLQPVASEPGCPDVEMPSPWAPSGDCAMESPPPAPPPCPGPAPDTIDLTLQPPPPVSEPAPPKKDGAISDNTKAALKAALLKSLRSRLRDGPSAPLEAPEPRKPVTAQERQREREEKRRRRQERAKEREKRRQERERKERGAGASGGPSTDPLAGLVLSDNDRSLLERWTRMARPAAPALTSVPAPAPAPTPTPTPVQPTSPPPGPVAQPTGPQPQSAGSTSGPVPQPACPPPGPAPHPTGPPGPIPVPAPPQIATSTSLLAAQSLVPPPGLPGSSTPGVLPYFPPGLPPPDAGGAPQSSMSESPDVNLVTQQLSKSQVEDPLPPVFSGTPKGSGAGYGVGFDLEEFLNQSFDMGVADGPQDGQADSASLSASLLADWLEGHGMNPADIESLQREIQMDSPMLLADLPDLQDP
T2 sequence (Q13164 55-347 limits assumed): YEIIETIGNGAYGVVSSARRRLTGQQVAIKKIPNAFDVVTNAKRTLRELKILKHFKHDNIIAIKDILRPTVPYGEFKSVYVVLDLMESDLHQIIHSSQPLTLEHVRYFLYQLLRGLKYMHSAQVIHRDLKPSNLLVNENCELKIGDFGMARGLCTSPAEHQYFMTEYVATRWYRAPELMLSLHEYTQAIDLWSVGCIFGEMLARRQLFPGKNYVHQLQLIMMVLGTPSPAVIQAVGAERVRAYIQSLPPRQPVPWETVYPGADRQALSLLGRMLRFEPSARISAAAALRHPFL

Structure (SMILES)	IC50 (Cellular ERK5 Activity) [nM]	IC50 [1] [nM]
CN1CCC(c2cnc3[nH]cc(C4CCN(C(=O)c5ccc(S(F)(F)(F)(F)F)cc5)CC4)c3n2)CC1 [Example 15, [4-[2-(1-Methyl-4-piperidyl)-5H-pyrrolo[2,3-b]pyrazin-7-yl]-1-piperidyl]-[4-(pentafluoro-λ^6-sulfanyl)phenyl]methanone]	96	98
O=C(c1ccc(S(F)(F)(F)(F)F)cc1)N1CCC(c2c[nH]c3ncc(C4CCOCC4)nc23)CC1 [Example 17, [4-(pentafluoro-λ^6-sulfanyl)phenyl]-[4-(2-tetrahydropyran-4-yl-5H-pyrrolo[2,3-b]pyrazin-7-yl)-1-piperidyl]methanone]	140	578
O=C(c1ccc(C(F)(F)C(F)(F)F)cc1)N1CCC(c2c[nH]c3ncc(C4CCOCC4)nc23)CC1 [Example 22, [4-(1,1,2,2,2-Pentafluoroethyl)phenyl]-[4-(2-tetrahydropyran-4-yl-5H-pyrrolo[2,3-b]pyrazin-7-yl)-1-piperidyl]methanone]	279	1140
O=C(C1CCCCC1)N1CCC(c2c[nH]c3ncc(C4CCOCC4)nc23)CC1 [Example 23, Cyclohexyl-[4-(2-tetrahydropyran-4-yl-5H-pyrrolo[2,3-b]pyrazin-7-yl)-1-piperidyl]methanone]	4800	13300
O=C(c1ccc(S(F)(F)(F)(F)F)cc1F)N1CCC(c2c[nH]c3ncc(C4CCOCC4)nc23)CC1 [Example 26, [2-Fluoro-4-(pentafluoro-λ^6-sulfanyl)phenyl]-[4-(2-tetrahydropyran-4-yl-5H-pyrrolo[2,3-b]pyrazin-7-yl)-1-piperidyl]methanone]	149	624
CN1CCN(c2cnc3[nH]cc(C4CCN(C(=O)c5ccc(OC(F)(F)F)cc5)CC4)c3n2)CC1 [Example 31, [4-[2-(4-methylpiperazin-1-yl)-5H-pyrrolo[2,3-b]pyrazin-7-yl]-1-piperidyl]-[4-(trifluoromethoxy)phenyl]methanone, formic acid]	86	189
O=C(c1ccc(OC(F)(F)F)cc1)N1CCC(c2c[nH]c3ncc(NC4CCOCC4)nc23)CC1 [Example 38, [4-[2-(tetrahydropyran-4-ylamino)-5H-pyrrolo[2,3-b]pyrazin-7-yl]-1-piperidyl]-[4-(trifluoromethoxy)phenyl]methanone]	166	993
O=C(c1ccc(OC(F)(F)F)cc1)N1CCC(c2c[nH]c3ncc(N4CCOCC4)nc23)CC1 [Example 40, [4-(2-morpholino-5H-pyrrolo[2,3-b]pyrazin-7-yl)-1-piperidyl]-[4-(trifluoromethoxy)phenyl]methanone]	180	1010
O=C(c1ccc(OC(F)(F)F)cc1)N1CCC(c2c[nH]c3ncc(N4CCC(F)(F)CC4)nc23)CC1 [Example 41, [4-[2-(4,4-difluoro-1-piperidyl)-5H-pyrrolo[2,3-b]pyrazin-7-yl]-1-piperidyl]-[4-(trifluoromethoxy)phenyl]methanone]	308	> 30000

The remaining lines, values ahead:

IC50 (Cellular ERK5 Activity) [nM]	IC50 [1] [nM]	Structure (SMILES)
226	25900	O=C(c1ccc(OC(F)(F)F)cc1)N1CCC(c2c[nH]c3ncc(C4CCCCC4)nc23)CC1 [Example 8, [4-(2-Cyclohexyl-5H-pyrrolo[2,3-b]pyrazin-7-yl)-1-piperidyl]-[4-(trifluoromethoxy)phenyl]methanone]
156	2150	Nc1cc(OC(F)(F)F)ccc1C(=O)N1CCC(c2c[nH]c3ncc(C4CCCCC4)nc23)CC1 [Example 9, [2-Amino-4-(trifluoromethoxy)phenyl]-[4-(2-cyclohexyl-5H-pyrrolo[2,3-b]pyrazin-7-yl)-1-piperidyl]methanone]
28	23	Nc1cc(OC(F)(F)F)ccc1C(=O)N1CCC(c2c[nH]c3ncc(C4CCN(C5CC5)CC4)nc23)CC1 [Example 10, [2-Amino-4-(trifluoromethoxy)phenyl]-[4-[2-(1-cyclopropyl-4-piperidyl)-5H-pyrrolo[2,3-b]pyrazin-7-yl]-1-piperidyl]methanone]
112	76	O=C(c1ccc(OC(F)(F)F)cc1)N1CCC(c2c[nH]c3ncc(C4CCN(C5CC5)CC4)nc23)CC1 [Example 11, [4-[2-(1-Cyclopropyl-4-piperidyl)-5H-pyrrolo[2,3-b]pyrazin-7-yl]-1-piperidyl]-[4-(trifluoromethoxy)phenyl]methanone]
25	38	CN1CCC(c2cnc3[nH]cc(C4CCN(C(=O)c5ccc(S(F)(F)(F)(F)F)cc5N)CC4)c3n2)CC1 [Example 16, [2-Amino-4-(pentafluoro-λ^6-sulfanyl)phenyl]-[4-[2-(1-methyl-4-piperidyl)-5H-pyrrolo[2,3-b]pyrazin-7-yl]-1-piperidyl]methanone]
34	330	Nc1cc(S(F)(F)(F)(F)F)ccc1C(=O)N1CCC(c2c[nH]c3ncc(C4CCOCC4)nc23)CC1 [Example 18, [2-Amino-4-(pentafluoro-λ^6-sulfanyl)phenyl]-[4-(2-tetrahydropyran-4-yl-5H-pyrrolo[2,3-b]pyrazin-7-yl)-1-piperidyl]methanone]
94	176	Nc1cc(S(F)(F)(F)(F)F)ccc1C(=O)N1CCC(c2c[nH]c3ncc(C4CCN(C5CC5)CC4)nc23)CC1 [Example 19, [2-Amino-4-(pentafluoro-λ^6-sulfanyl)phenyl]-[4-[2-(1-cyclopropyl-4-piperidyl)-5H-pyrrolo[2,3-b]pyrazin-7-yl]-1-piperidyl]methanone]
201	282	O=C(c1ccc(S(F)(F)(F)(F)F)cc1)N1CCC(c2c[nH]c3ncc(C4CCN(C5CC5)CC4)nc23)CC1 [Example 20, [4-[2-(1-Cyclopropyl-4-piperidyl)-5H-pyrrolo[2,3-b]pyrazin-7-yl]-1-piperidyl]-[4-(pentafluoro-λ^6-sulfanyl)phenyl]methanone]
352	359	O=C(c1ccc(OC2CC2)cc1)N1CCC(c2c[nH]c3ncc(C4CCOCC4)nc23)CC1 [Example 21, [4-(Cyclopropoxy)phenyl]-[4-(2-tetrahydropyran-4-yl-5H-pyrrolo[2,3-b]pyrazin-7-yl)-1-piperidyl]methanone]
5430	5560	Nc1cc(OC(F)(F)F)ccc1C(=O)N1CCC(c2c[nH]c3ncc(NC4COC4)nc23)CC1 [Example 27, [2-amino-4-(trifluoromethoxy)phenyl]-[4-[2-(oxetan-3-ylamino)-5H-pyrrolo[2,3-b]pyrazin-7-yl]-1-piperidyl]methanone]
190	405	Nc1cc(OC(F)(F)F)ccc1C(=O)N1CCC(c2c[nH]c3ncc(O[C@@H]4CCOC4)nc23)CC1 [Example 28, [2-amino-4-(trifluoromethoxy)phenyl]-[4-[2-[(3R)-tetrahydrofuran-3-yl]oxy-5H-pyrrolo[2,3-b]pyrazin-7-yl]-1-piperidyl]methanone]
215	399	Nc1cc(OC(F)(F)F)ccc1C(=O)N1CCC(c2c[nH]c3ncc(O[C@H]4CCOC4)nc23)CC1 [Example 29, [2-amino-4-(trifluoromethoxy)phenyl]-[4-[2-[(3S)-tetrahydrofuran-3-yl]oxy-5H-pyrrolo[2,3-b]pyrazin-7-yl]-1-piperidyl]methanone]
37	307	Nc1cc(OC(F)(F)F)ccc1C(=O)N1CCC(c2c[nH]c3ncc(NC4CCOCC4)nc23)CC1 [Example 39, [2-amino-4-(trifluoromethoxy)phenyl]-[4-[2-(tetrahydropyran-4-ylamino)-5H-pyrrolo[2,3-b]pyrazin-7-yl]-1-piperidyl]methanone]
